Results from the supplement of paper PMC10307832.

Columns and labels:
Test in all cases: relative viability (nuclei count vs DMSO), 5 days (fraction); higher = more cells survive
201T = tested on: 201T
How it was run: (§1)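 Lung cancer cell lines in 1536-well plates got either a single drug or a fixed anchor-drug dose together with five library-drug doses (not always all listed) in √10 steps, by pin tool, on the day after seeding. Nuclei were counted after 5 days, and relative viability is the treated-to-vehicle ratio of nuclei counts. Values are medians of duplicate plates.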

BEN = tested on: BEN
How it was run: as §1

CAL-12T = tested on: CAL-12T
How it was run: as §1

COR-L 105 = tested on: COR-L 105
How it was run: as §1

COR-L23 = tested on: COR-L23
How it was run: as §1

EKVX = tested on: EKVX
How it was run: as §1

HARA = tested on: HARA
How it was run: as §1

HCC-366 = tested on: HCC-366
How it was run: as §1

LK-2 = tested on: LK-2
How it was run: as §1

LU99A = tested on: LU99A
How it was run: as §1

NCI-H1437 = tested on: NCI-H1437
How it was run: as §1

NCI-H1650 = tested on: NCI-H1650
How it was run: as §1

NCI-H1666 = tested on: NCI-H1666
How it was run: as §1

NCI-H2009 = tested on: NCI-H2009
How it was run: as §1

NCI-H2170 = tested on: NCI-H2170
How it was run: as §1

NCI-H3122 = tested on: NCI-H3122
How it was run: as §1

NCI-H441 = tested on: NCI-H441
How it was run: as §1

NCI-H661 = tested on: NCI-H661
How it was run: as §1

NCI-H727 = tested on: NCI-H727
How it was run: as §1

NCI-H838 = tested on: NCI-H838
How it was run: as §1

PC-14 = tested on: PC-14
How it was run: as §1

SW 900 = tested on: SW 900
How it was run: as §1

## CC1(C)CCC(c2ccc(Cl)cc2)=C(CN2CCN(c3ccc(C(=O)NS(=O)(=O)c4ccc(N[C@H](CCN5CCOCC5)CSc5ccccc5)c(S(=O)(=O)C(F)(F)F)c4)cc3)CC2)C1 [Navitoclax] + CC(=O)Nc1cccc(-n2c(=O)n(C3CC3)c(=O)c3c(Nc4ccc(I)cc4F)n(C)c(=O)c(C)c32)c1 [Trametinib] (partner 0.02 µM)
201T; first compound 0.005 µM
  relative viability: 0.715
201T; first compound 0.01581 µM
  relative viability: 0.784
201T; first compound 0.05 µM
  relative viability: 0.741
201T; first compound 0.1581 µM
  relative viability: 0.7
201T; first compound 0.5 µM
  relative viability: 0.726
BEN; first compound 0.005 µM
  relative viability: 1.07
BEN; first compound 0.01581 µM
  relative viability: 1.18
BEN; first compound 0.05 µM
  relative viability: 0.94
BEN; first compound 0.1581 µM
  relative viability: 1.05
BEN; first compound 0.5 µM
  relative viability: 0.669
CAL-12T; first compound 0.005 µM
  relative viability: 0.348
CAL-12T; first compound 0.01581 µM
  relative viability: 0.373
CAL-12T; first compound 0.05 µM
  relative viability: 0.351
CAL-12T; first compound 0.1581 µM
  relative viability: 0.331
CAL-12T; first compound 0.5 µM
  relative viability: 0.311
COR-L 105; first compound 0.005 µM
  relative viability: 0.441
COR-L 105; first compound 0.01581 µM
  relative viability: 0.476
COR-L 105; first compound 0.05 µM
  relative viability: 0.428
COR-L 105; first compound 0.1581 µM
  relative viability: 0.447
COR-L 105; first compound 0.5 µM
  relative viability: 0.379
COR-L23; first compound 0.005 µM
  relative viability: 0.6
COR-L23; first compound 0.01581 µM
  relative viability: 0.601
COR-L23; first compound 0.05 µM
  relative viability: 0.514
COR-L23; first compound 0.1581 µM
  relative viability: 0.577
COR-L23; first compound 0.5 µM
  relative viability: 0.61
EKVX; first compound 0.005 µM
  relative viability: 0.292
EKVX; first compound 0.01581 µM
  relative viability: 0.457
EKVX; first compound 0.05 µM
  relative viability: 0.334
EKVX; first compound 0.1581 µM
  relative viability: 0.376
EKVX; first compound 0.5 µM
  relative viability: 0.333
HARA; first compound 0.005 µM
  relative viability: 0.44
HARA; first compound 0.01581 µM
  relative viability: 0.638
HARA; first compound 0.05 µM
  relative viability: 0.917
HARA; first compound 0.1581 µM
  relative viability: 0.587
HARA; first compound 0.5 µM
  relative viability: 1.06
HCC-366; first compound 0.005 µM
  relative viability: 0.319
HCC-366; first compound 0.01581 µM
  relative viability: 0.419
HCC-366; first compound 0.1581 µM
  relative viability: 0.351
HCC-366; first compound 0.5 µM
  relative viability: 0.288
LK-2; first compound 0.005 µM
  relative viability: 0.76
LK-2; first compound 0.01581 µM
  relative viability: 0.868
LK-2; first compound 0.05 µM
  relative viability: 0.922
LK-2; first compound 0.1581 µM
  relative viability: 0.807
LK-2; first compound 0.5 µM
  relative viability: 0.695
LU99A; first compound 0.005 µM
  relative viability: 0.527
LU99A; first compound 0.01581 µM
  relative viability: 0.597
LU99A; first compound 0.1581 µM
  relative viability: 0.572
LU99A; first compound 0.5 µM
  relative viability: 0.674
NCI-H1437; first compound 0.005 µM
  relative viability: 0.476
NCI-H1437; first compound 0.01581 µM
  relative viability: 0.595
NCI-H1437; first compound 0.05 µM
  relative viability: 0.359
NCI-H1437; first compound 0.1581 µM
  relative viability: 0.472
NCI-H1437; first compound 0.5 µM
  relative viability: 0.539
NCI-H1650; first compound 0.005 µM
  relative viability: 0.646
NCI-H1650; first compound 0.01581 µM
  relative viability: 0.723
NCI-H1650; first compound 0.05 µM
  relative viability: 0.489
NCI-H1650; first compound 0.1581 µM
  relative viability: 0.439
NCI-H1650; first compound 0.5 µM
  relative viability: 0.45
NCI-H1666; first compound 0.005 µM
  relative viability: 0.933
NCI-H1666; first compound 0.01581 µM
  relative viability: 0.937
NCI-H1666; first compound 0.05 µM
  relative viability: 0.928
NCI-H1666; first compound 0.1581 µM
  relative viability: 0.903
NCI-H1666; first compound 0.5 µM
  relative viability: 0.931
NCI-H2009; first compound 0.005 µM
  relative viability: 0.324
NCI-H2009; first compound 0.01581 µM
  relative viability: 0.355
NCI-H2009; first compound 0.05 µM
  relative viability: 0.322
NCI-H2009; first compound 0.1581 µM
  relative viability: 0.303
NCI-H2009; first compound 0.5 µM
  relative viability: 0.308
NCI-H2170; first compound 0.005 µM
  relative viability: 0.926
NCI-H2170; first compound 0.01581 µM
  relative viability: 0.984
NCI-H2170; first compound 0.05 µM
  relative viability: 0.892
NCI-H2170; first compound 0.1581 µM
  relative viability: 0.887
NCI-H2170; first compound 0.5 µM
  relative viability: 0.874
NCI-H3122; first compound 0.005 µM
  relative viability: 0.243
NCI-H3122; first compound 0.01581 µM
  relative viability: 0.221
NCI-H3122; first compound 0.05 µM
  relative viability: 0.217
NCI-H3122; first compound 0.1581 µM
  relative viability: 0.222
NCI-H3122; first compound 0.5 µM
  relative viability: 0.211
NCI-H441; first compound 0.005 µM
  relative viability: 0.534
NCI-H441; first compound 0.01581 µM
  relative viability: 0.616
NCI-H441; first compound 0.05 µM
  relative viability: 0.349
NCI-H441; first compound 0.1581 µM
  relative viability: 0.448
NCI-H441; first compound 0.5 µM
  relative viability: 0.553
NCI-H661; first compound 0.005 µM
  relative viability: 0.516
NCI-H661; first compound 0.01581 µM
  relative viability: 0.702
NCI-H661; first compound 0.05 µM
  relative viability: 0.551
NCI-H661; first compound 0.1581 µM
  relative viability: 0.533
NCI-H661; first compound 0.5 µM
  relative viability: 0.538
NCI-H727; first compound 0.005 µM
  relative viability: 0.406
NCI-H727; first compound 0.01581 µM
  relative viability: 0.393
NCI-H727; first compound 0.05 µM
  relative viability: 0.378
NCI-H727; first compound 0.1581 µM
  relative viability: 0.399
NCI-H727; first compound 0.5 µM
  relative viability: 0.403
NCI-H838; first compound 0.005 µM
  relative viability: 0.422
NCI-H838; first compound 0.01581 µM
  relative viability: 0.639
NCI-H838; first compound 0.05 µM
  relative viability: 0.51
NCI-H838; first compound 0.1581 µM
  relative viability: 0.559
NCI-H838; first compound 0.5 µM
  relative viability: 0.555
PC-14; first compound 0.005 µM
  relative viability: 0.804
PC-14; first compound 0.01581 µM
  relative viability: 1.21
PC-14; first compound 0.05 µM
  relative viability: 0.808
PC-14; first compound 0.1581 µM
  relative viability: 0.801
PC-14; first compound 0.5 µM
  relative viability: 0.695
SW 900; first compound 0.005 µM
  relative viability: 0.706
SW 900; first compound 0.01581 µM
  relative viability: 0.981
SW 900; first compound 0.1581 µM
  relative viability: 0.828
SW 900; first compound 0.5 µM
  relative viability: 0.81
